Source: US20060229438A1, “Monoclonal antibody derived peptide inhibitors for mycobacterial dna gyrase” (priority 2002, published 2006)

B1: scFv:GyrA: engineered single chain antibody fragment of MsGyrA:C3, monovalent 30 kDa polypeptide, Seq. ID #2, encoded by pVNUHMscFv (protein)
scFv: AQVKLQQSGAELVRPGASVKLSCKASGYSFTVYYIYWVKQRPGQALEWIGEINPSNGGTNFNEKFKTKATLTVDKSTSTVYMQLSSLTSEDSAVYYCTRWGLRRGFAYWGQGTTVTVSSSGGGSGGGGSGGGGSDIELTQSPKSMSMSVGERVTLSCKASENVGTHVSWYQQRPEESPKLLIYGASNRYTGVPDRFTGSGSATDFTLTISNVQAEDLADYHCGQTYSYPFTFGLGTKLEIKRAAAGAPVPYPDPLEPRAA

Key:
[1] = target: DNA gyrase from ciprofloxacin resistant M. smegmatis mc^2155 strain (Mycolicibacterium smegmatis, UniProt A0QNE0+P48354); type: biochemical
[2] = system: DNA gyrase from ofloxacin resistant clinical isolate of M. tuberculosis (ICC-222)

| Molecule | susceptibility of the enzyme to ciprofloxacin [1] | IC50 ([1]; read-out: IC50 (no inhibition up to concentration)) | concentration that completely inhibited DNA gyrase [2] |
| --- | --- | --- | --- |
| O=C(O)c1cn(C2CC2)c2cc(N3CCNCC3)c(F)cc2c1=O [ciprofloxacin, reference compound] | showed resistance | > 1.21 mM |  |
| B1 |  |  | 10 nM |
